Consider five compounds from patent US20240209028A1, “CNP COMPOUNDS” (priority 2022, published 2024).

For this experiment, the target named is T1, human natriuretic peptide receptor 2 (hNPR2) (Homo sapiens, UniProt P20594).
T1 construct: expressed in transfected cells; host or cells: HEK293 (ATCC CRL-1573), clone 35, co-transfected with pGloSensor-42F
T1 sequence (P20594 23-1047): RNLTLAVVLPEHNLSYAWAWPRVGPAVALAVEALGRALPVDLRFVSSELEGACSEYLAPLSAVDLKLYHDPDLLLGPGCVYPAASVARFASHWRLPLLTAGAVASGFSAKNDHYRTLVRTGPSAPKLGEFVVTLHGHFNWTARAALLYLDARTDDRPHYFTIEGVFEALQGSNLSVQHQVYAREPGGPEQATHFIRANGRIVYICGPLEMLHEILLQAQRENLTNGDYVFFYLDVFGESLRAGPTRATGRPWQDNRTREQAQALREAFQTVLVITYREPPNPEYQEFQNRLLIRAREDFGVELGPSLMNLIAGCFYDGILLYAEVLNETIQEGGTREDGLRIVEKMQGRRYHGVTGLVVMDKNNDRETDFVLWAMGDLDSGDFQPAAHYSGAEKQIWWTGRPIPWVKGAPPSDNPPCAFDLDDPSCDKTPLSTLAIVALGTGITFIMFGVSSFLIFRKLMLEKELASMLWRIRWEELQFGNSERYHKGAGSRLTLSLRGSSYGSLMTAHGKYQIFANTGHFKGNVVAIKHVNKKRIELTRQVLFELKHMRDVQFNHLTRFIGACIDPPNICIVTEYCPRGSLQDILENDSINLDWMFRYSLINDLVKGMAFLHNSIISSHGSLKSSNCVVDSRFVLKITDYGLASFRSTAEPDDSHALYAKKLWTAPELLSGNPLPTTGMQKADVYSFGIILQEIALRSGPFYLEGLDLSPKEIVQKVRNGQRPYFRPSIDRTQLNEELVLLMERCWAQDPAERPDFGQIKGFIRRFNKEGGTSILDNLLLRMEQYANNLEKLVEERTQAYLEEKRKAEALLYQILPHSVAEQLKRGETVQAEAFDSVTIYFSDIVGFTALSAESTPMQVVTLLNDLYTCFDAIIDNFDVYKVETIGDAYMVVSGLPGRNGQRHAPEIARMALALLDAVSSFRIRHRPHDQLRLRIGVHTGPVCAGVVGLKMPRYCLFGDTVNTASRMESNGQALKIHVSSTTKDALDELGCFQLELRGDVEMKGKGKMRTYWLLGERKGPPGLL
In words: In vitro hNPR2 activity assay (cGMP GloSensor reporter, HEK293). The format is cell-based. The following applies: for hNPR2 0% HSA. [EC50% rel CNP]: potency relative to CNP22 (0065). An outline of the steps: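 Potency is the EC50 from a four-parameter logistic fit, also expressed relative to the in-plate CNP22 control (×100), with at least two replicates. Compounds (ten concentrations, […], HSA-free diluent with 1% OVA, 0.01% Tween20) were incubated 30 min at 37 °C on HEK293 cells co-expressing hNPR2 and a GloSensor cGMP luciferase. Luminescence detected with Bright-Glo.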

By EC50 is commonly meant the concentration that produces a half-maximal response. Low readings indicate higher potency in that assay, high ones lower potency in that assay.

Molecules are shown by their SMILES. Starred links: 1 amine or outer side, 2 acyl side, 3 side chain; linkers in the order of their positions; H or OH if unused. Positions of bridges follow the written chain, without caps; N, C: chain ends. Residues, ends and D or L forms follow the SMILES beside them. *: point of attachment. C18 diacid = O=C(O)CCCCCCCCCCCCCCCCC(=O)*; γGlu = O=C(O)[C@H](CCC(=O)[*:2])N[*:1]; AEEA = NCCOCCOCC(=O)O

On to `CC[C@H](C)[C@@H]1NC(=O)[C@H](CCCNC(=N)N)NC(=O)[C@H](CC(=O)O)NC(=O)[C@H](CC(C)C)NC(=O)[C@H](CCCCN)NC(=O)[C@H](CC(C)C)NC(=O)CNC(=O)[C@H](Cc2ccccc2)NC(=O)[C@@H](NC(=O)CNC(=O)[C@H](CCC(N)=O)NC(=O)[C@H](CO)NC(=O)[C@H](CC(C)C)NC(=O)CNC(=O)[C@H](CCCCN)NC(=O)[C@H](CCCCN)NC(=O)[C@H](CCC(N)=O)NC(=O)[C@H](C)NC(=O)CNC(=O)[C@H](CCCCN)NC(=O)[C@H](Cc2ccc(O)cc2)NC(=O)[C@H](CCCCN)NC(=O)[C@H](CCCNC(=N)N)NC(=O)[C@H](C)NC(=O)COCCOCCNC(=O)COCCOCCNC(=O)COCCOCCNC(=O)COCCOCCNC(=O)CC[C@H](NC(=O)CC[C@H](NC(=O)CC[C@H](NC(=O)CC[C@H](NC(=O)CC[C@H](NC(=O)CCCCCCCCCCCCCCCCC(=O)O)C(=O)O)C(=O)O)C(=O)O)C(=O)O)C(=O)O)CSSC[C@@H](C(=O)O)NC(=O)CNC(=O)[C@H](CC(C)C)NC(=O)CNC(=O)[C@H](CO)NC(=O)[C@H](CC(C)C)NC(=O)[C@H](CO)NC(=O)CNC1=O` [compound 1463] ({C18 diacid-γGlu-γGlu-γGlu-γGlu-γGlu-AEEA-AEEA-AEEA-AEEA}-ARKYKGAQKKGLSQGCFGLKLDRIGSLSGLGC-OH; disulfide 16-32), for which the “hNPR2 0% HSA. [EC50% rel CNP]” value is reported as 20.0%. Moreover, the EC50 (0% HSA, HEK293-hNPR2/GloSensor cells) came to 0.3 nM. For `CC[C@H](C)[C@@H]1NC(=O)[C@H](CCCNC(=N)N)NC(=O)[C@H](CC(=O)O)NC(=O)[C@H](CC(C)C)NC(=O)[C@@H]2CCCN2C(=O)[C@H](CC(C)C)NC(=O)CNC(=O)[C@H](Cc2ccccc2)NC(=O)[C@@H](NC(=O)CNC(=O)[C@H](CCC(N)=O)NC(=O)[C@H](CO)NC(=O)[C@H](CC(C)C)NC(=O)CNC(=O)[C@H](CCCCN)NC(=O)[C@H](CCCCN)NC(=O)[C@H](CC(N)=O)NC(=O)[C@H](C)NC(=O)CNC(=O)[C@H](CCCCN)NC(=O)[C@H](Cc2ccc(O)cc2)NC(=O)[C@H](CCCCN)NC(=O)[C@H](CCCNC(=N)N)NC(=O)[C@H](C)NC(=O)COCCOCCNC(=O)COCCOCCNC(=O)COCCOCCNC(=O)COCCOCCNC(=O)CC[C@H](NC(=O)CC[C@H](NC(=O)CC[C@H](NC(=O)CC[C@H](NC(=O)CC[C@H](NC(=O)CCCCCCCCCCCCCCCCC(=O)O)C(=O)O)C(=O)O)C(=O)O)C(=O)O)C(=O)O)CSSC[C@@H](C(=O)O)NC(=O)CNC(=O)[C@H](CC(C)C)NC(=O)CNC(=O)[C@H](CO)NC(=O)[C@H](CC(C)C)NC(=O)[C@H](CO)NC(=O)CNC1=O` [compound 1464] ({C18 diacid-γGlu-γGlu-γGlu-γGlu-γGlu-AEEA-AEEA-AEEA-AEEA}-ARKYKGANKKGLSQGCFGLPLDRIGSLSGLGC-OH; disulfide 16-32; C-terminus assumed), the “hNPR2 0% HSA. [EC50% rel CNP]” value is reported as 48.8%. Same read-out and setting: the same measure for `CC[C@H](C)[C@@H]1NC(=O)[C@H](CCCNC(=N)N)NC(=O)[C@H](CC(=O)O)NC(=O)[C@H](CC(C)C)NC(=O)[C@@H]2CCCN2C(=O)[C@H](CC(C)C)NC(=O)CNC(=O)[C@H](Cc2ccccc2)NC(=O)[C@@H](NC(=O)CNC(=O)[C@H](CCC(N)=O)NC(=O)[C@H](CO)NC(=O)[C@H](CC(C)C)NC(=O)CNC(=O)[C@H](CCCCN)NC(=O)[C@H](CCCCN)NC(=O)[C@H](CCC(N)=O)NC(=O)[C@H](C)NC(=O)CNC(=O)[C@H](CCCCN)NC(=O)[C@H](Cc2ccc(O)cc2)NC(=O)[C@H](CCCCN)NC(=O)[C@H](CCCNC(=N)N)NC(=O)[C@H](C)NC(=O)COCCOCCNC(=O)COCCOCCNC(=O)COCCOCCNC(=O)COCCOCCNC(=O)CC[C@H](NC(=O)CC[C@H](NC(=O)CC[C@H](NC(=O)CC[C@H](NC(=O)CC[C@H](NC(=O)CCCCCCCCCCCCCCCCC(=O)O)C(=O)O)C(=O)O)C(=O)O)C(=O)O)C(=O)O)CSSC[C@@H](C(=O)O)NC(=O)CNC(=O)[C@H](CC(C)C)NC(=O)CNC(=O)[C@H](CO)NC(=O)[C@H](CCSC)NC(=O)[C@H](CO)NC(=O)CNC1=O` [compound 1465] ({C18 diacid-γGlu-γGlu-γGlu-γGlu-γGlu-AEEA-AEEA-AEEA-AEEA}-ARKYKGAQKKGLSQGCFGLPLDRIGSMSGLGC-OH; disulfide 16-32): 24.0%; for `CC[C@H](C)[C@@H]1NC(=O)[C@H](CCCNC(=N)N)NC(=O)[C@H](CC(=O)O)NC(=O)[C@H](CC(C)C)NC(=O)[C@@H]2CCCN2C(=O)[C@H](CC(C)C)NC(=O)CNC(=O)[C@H](Cc2ccccc2)NC(=O)[C@@H](NC(=O)CNC(=O)[C@H](CCC(N)=O)NC(=O)[C@H](CO)NC(=O)[C@H](CC(C)C)NC(=O)CNC(=O)[C@H](CCCCN)NC(=O)[C@H](CCCCN)NC(=O)[C@H](CCC(N)=O)NC(=O)[C@H](C)NC(=O)CNC(=O)[C@H](CCCCN)NC(=O)[C@H](Cc2ccc(O)cc2)NC(=O)[C@H](CCCCN)NC(=O)[C@H](CCCNC(=N)N)NC(=O)[C@H](C)NC(=O)[C@H](CCC(N)=O)NC(=O)[C@@H]2CCCN2C(=O)[C@H](Cc2c[nH]cn2)NC(=O)[C@H](CCC(=O)O)NC(=O)[C@H](CCC(N)=O)NC(=O)COCCOCCNC(=O)COCCOCCNC(=O)CC[C@H](NC(=O)CC[C@H](NC(=O)CC[C@H](NC(=O)CC[C@H](NC(=O)CC[C@H](NC(=O)CCCCCCCCCCCCCCCCC(=O)O)C(=O)O)C(=O)O)C(=O)O)C(=O)O)C(=O)O)CSSC[C@@H](C(=O)O)NC(=O)CNC(=O)[C@H](CC(C)C)NC(=O)CNC(=O)[C@H](CO)NC(=O)[C@H](CC(C)C)NC(=O)[C@H](CO)NC(=O)CNC1=O` [compound 1471] ({C18 diacid-γGlu-γGlu-γGlu-γGlu-γGlu-AEEA-AEEA}-QEHPQARKYKGAQKKGLSQGCFGLPLDRIGSLSGLGC-OH; disulfide 21-37): 40.2%. Still for that read-out and setting: the same measure for `CC[C@H](C)[C@@H]1NC(=O)[C@H](CCCNC(=N)N)NC(=O)[C@H](CC(=O)O)NC(=O)[C@H](CC(C)C)NC(=O)[C@@H]2CCCN2C(=O)[C@H](CC(C)C)NC(=O)CNC(=O)[C@H](Cc2ccccc2)NC(=O)[C@@H](NC(=O)CNC(=O)[C@H](CCC(N)=O)NC(=O)[C@H](CO)NC(=O)[C@H](CC(C)C)NC(=O)CNC(=O)[C@H](CCCCN)NC(=O)[C@H](CCCCN)NC(=O)[C@H](CCC(N)=O)NC(=O)[C@H](C)NC(=O)CNC(=O)[C@H](CCCCN)NC(=O)[C@H](Cc2ccc(O)cc2)NC(=O)[C@H](CCCCN)NC(=O)[C@H](CCCNC(=N)N)NC(=O)[C@H](C)NC(=O)[C@H](CCC(N)=O)NC(=O)[C@@H]2CCCN2C(=O)[C@H](Cc2c[nH]cn2)NC(=O)[C@H](CCC(=O)O)NC(=O)[C@H](CCC(N)=O)NC(=O)COCCOCCNC(=O)COCCOCCNC(=O)CC[C@H](NC(=O)CC[C@H](NC(=O)CC[C@H](NC(=O)CC[C@H](NC(=O)CCCCCCCCCCCCCCCCC(=O)O)C(=O)O)C(=O)O)C(=O)O)C(=O)O)CSSC[C@@H](C(=O)O)NC(=O)CNC(=O)[C@H](CC(C)C)NC(=O)CNC(=O)[C@H](CO)NC(=O)[C@H](CC(C)C)NC(=O)[C@H](CO)NC(=O)CNC1=O` [compound 1472] ({C18 diacid-γGlu-γGlu-γGlu-γGlu-AEEA-AEEA}-QEHPQARKYKGAQKKGLSQGCFGLPLDRIGSLSGLGC-OH; disulfide 21-37; C-terminus assumed): 52.0%.
